Measurements reported in patent publication US20230181584A1, “METHOD OF TREATING CANCER HAVING AN ACTIVATED HEDGEHOG PATHWAY” (Endeavor Biomedicines, Inc., priority 2021, published 2023).

Assays:
[1] = background statement on Hh pathway inhibitors; cited from earlier work
advanced cancer [2] = experiment: Clinical benefit across all completed studies of taladegib in advanced cancer (total); format: in vivo, human
Source text: (§1) Approximately 192 study participants have received at least one dose of taladegib in sponsor-initiated and -controlled trials for the treatment of advanced cancers. The clinical trials were: • q. HHBB: Phase 1 dose-escalation study to evaluate the safety and tolerability of taladegib in patients with advanced cancer. • r. HHBE: Phase Ib/2 double-blind randomized study of the Human smoothened (hSmo) antagonist taladegib in combination with carboplatin and etoposide followed by taladegib versus carboplatin and etoposide plus placebo followed by placebo in patients with extensive stage small cell lung cancer (SCLC). • s. HHBH: Phase 1 study of taladegib in Japanese patients with advanced solid tumors. • t. HIPROC: An investigator-initiated Phase 1a/1b dose-escalation study of taladegib in combination with weekly intravenous paclitaxel in patients with advanced solid cancers. • u. HHBF: A Phase 1 ^14C metabolism study of 100 mg of taladegib in healthy subjects. • v. HHBG: A Phase 1 single ascending dose study of taladegib in healthy subjects.
(§2) Participants include approximately 156 advanced cancer patients from studies HHBB (N=95), HHBE (N=26), HHBH (N=19), HIPROC (N=16) and 36 healthy volunteers from studies HHBG (N=30) and HHBF (N=6).
(§3) The primary tumor type enrolled was BCC. Additionally, responses in medulloblastoma (monotherapy), SCLC (in combination with carboplatin and etoposide) and ovarian cancer (in combination with paclitaxel) were also observed.

advanced solid tumors = experiment: HHBH: Phase 1 study of taladegib in Japanese patients with advanced solid tumors; format: in vivo, human; details: N=19, RECIST v1.1
Source text: as §1, §2, §3

advanced cancer [3] = experiment: HHBB: Phase 1 dose-escalation study of taladegib in patients with advanced cancer; format: in vivo, human; details: N=84, monotherapy, RECIST v1.1
Source text: as §1, §2, §3

[4] = tested on: extensive stage small cell lung cancer (SCLC); experiment: HHBE: Phase Ib/2 study of taladegib with carboplatin and etoposide in extensive stage SCLC; format: in vivo, human; details: in combination with carboplatin and etoposide, N=26, RECIST v1.1
Source text: as §1, §2, §3

[5] = Safety in clinical trials of taladegib (healthy volunteers and advanced cancer patients); format: in vivo, human
Source text: as §1, §2
As expected, AEs associated with chemotherapy were also observed when taladegib was used in combination with anti-neoplastic agents.

Gli1 activity = details: Daoy cells; as described in U.S. Pat. No. 9,000,023; read-out: IC50, inhibition of Gli1 activity; cited from earlier work
advanced cancer [6] = experiment: HHBB addendum; format: in vivo, human; details: N=11, RECIST v1.1
Source text: as §3

advanced solid cancers = experiment: HIPROC: Phase 1a/1b dose-escalation study of taladegib with weekly intravenous paclitaxel; format: in vivo, human; details: in combination with weekly intravenous paclitaxel, N=16, RECIST v1.1
Source text: as §1, §2, §3

[7] = Total of all completed studies, N=156

Compound: CC1=C2C[C@H]3[C@@H](CC[C@@H]4C[C@H](NS(C)(=O)=O)CC[C@@]43C)[C@@H]2CC[C@@]2(C1)O[C@@H]1C[C@H](C)CN[C@H]1[C@H]2C [saridegib]
- Toxicity [1]: unacceptable toxicity

Compound: CN(C(=O)c1ccc(F)cc1C(F)(F)F)C1CCN(c2nnc(-c3ccnn3C)c3ccccc23)CC1 [Taladegib, 4-Fluoro-N-methyl-N-(1-(4-(1-methyl-1H-pyrazol-5-yl)phthalazin-1-yl)piperidin-4-yl)-2-(trifluoromethyl)benzamide]
- CR (complete response), number of patients (advanced cancer [2]; [7]): 6
- CR (complete response), percent of patients (advanced cancer [2]; [7]): 4%
- Clinical Benefit, number of patients (advanced cancer [2]; [7]): 94
- Clinical Benefit, percent of patients (advanced cancer [2]; [7]): 60%
- PR (partial response), number of patients (advanced cancer [2]; [7]): 42
- PR (partial response), percent of patients (advanced cancer [2]; [7]): 27%
- Clinical (RECIST v1.1) responses by dose (advanced cancer [2]; across all four multiple-dose studies in patients): responses were observed at all doses
- Responses in SCLC (advanced cancer [2]; in combination with carboplatin and etoposide): observed
- Responses in ovarian cancer (advanced cancer [2]; in combination with paclitaxel): observed
- Responses in medulloblastoma (advanced cancer [2]; monotherapy): observed
- CR (complete response), number of patients (advanced solid tumors): 0 (0%)
- CR (complete response), percent of patients (advanced solid tumors): 0 (0%)
- Clinical Benefit, number of patients (advanced solid tumors): 5
- Clinical Benefit, percent of patients (advanced solid tumors): 26%
- PR (partial response), number of patients (advanced solid tumors): 1
- PR (partial response), percent of patients (advanced solid tumors): 5%
- CR (complete response), number of patients (advanced cancer [3]): 5
- CR (complete response), percent of patients (advanced cancer [3]): 6%
- Clinical Benefit, number of patients (advanced cancer [3]): 48
- Clinical Benefit, percent of patients (advanced cancer [3]): 57%
- PR (partial response), number of patients (advanced cancer [3]): 17
- PR (partial response), percent of patients (advanced cancer [3]): 20%
- CR (complete response), number of patients [4]: 0 (0%)
- CR (complete response), percent of patients [4]: 0 (0%)
- Clinical Benefit, number of patients [4]: 21
- Clinical Benefit, percent of patients [4]: 81%
- PR (partial response), number of patients [4]: 14
- PR (partial response), percent of patients [4]: 54%
- Safety profile ([5]; advanced cancer patients, monotherapy and combination with anti-neoplastic agents): manageable safety profile
- Most commonly observed AEs ([5]; as a monotherapy): nausea, diarrhea, dysgeusia, fatigue, decreased appetite, alopecia, vomiting, muscle spasm, constipation, weight decrease, and headache
- Important potential risks associated with treatment ([5]; on the basis of preclinical and clinical data and information for molecules in the same therapeutic class): hepatic injury, embryotoxicity and teratogenicity, and rhabdomyolysis
- IC50 (Gli1 activity): ~2.4 nM
- CR (complete response), number of patients (advanced cancer [6]): 1
- CR (complete response), percent of patients (advanced cancer [6]): 9%
- Clinical Benefit, number of patients (advanced cancer [6]): 4
- Clinical Benefit, percent of patients (advanced cancer [6]): 36%
- PR (partial response), number of patients (advanced cancer [6]): 0
- CR (complete response), number of patients (advanced solid cancers): 0 (0%)
- CR (complete response), percent of patients (advanced solid cancers): 0 (0%)
- Clinical Benefit, number of patients (advanced solid cancers): 10
- Clinical Benefit, percent of patients (advanced solid cancers): 62%
- PR (partial response), number of patients (advanced solid cancers): 4
- PR (partial response), percent of patients (advanced solid cancers): 25%

Compound: CS(=O)(=O)c1ccc(C(=O)Nc2ccc(Cl)c(-c3ccccn3)c2)c(Cl)c1 [vismodegib]
- Toxicity [1]: unacceptable toxicity
